Measured values published in patent US12318393B2, “Modulators of orphan nuclear receptors for NASH and other metabolic disorders” (Emory University, priority 2018, dated 2025).

Assays:
[1] = system: C57BL/6 mice fed with atherogenic diet; experiment: Atherogenic (fibrotic) diet mouse model: liver damage, inflammation, fibrosis; type: in vivo
Method: (§1) Male C57BL/6J mice, 7 to 8 weeks old, were housed randomly in standard cages and were fed a HFD, or atherogenic diet (consisting 1% Chol and 0.5% cholic acid, see also Table 3). All mice had free access to water during the experimental period. During the feeding period body weight was monitored every 3 days. In the HFD experiment, after 4 or 6 weeks, the resultant obese mice were treated with antagomiR-122 ([…] once a week for 3 weeks), or i.p. injected with Compound 1 (RORα agonist, 7.5 mg/kg twice a week for 3 weeks; or 15 mg/kg 3 times a week for 3 weeks). The obese control (HFD) group was administered only saline with DMSO and antagomiR-control. After 3 weeks of treatment mice were sacrificed and livers were taken for RNA-seq analysis. Livers, white adipose, and skeletal muscle tissues were frozen in liquid nitrogen or in optimum cutting temperature embedded frozen blocks, for further RNA and histologic analysis. In the atherogenic diet experiment mice were treated with 15 mg/kg Compound 1 after 3 weeks with the diet. After 3.5 weeks of treatment, mice were sacrificed, and the livers were frozen in liquid nitrogen or in optimum cutting temperature embedded frozen blocks. Plasma was collected from atherogenic diet-fed mice and saved in −20° C. for ALT and AST analysis using the Reflotron® Analyzer and test-strips (Roche).
Livers and adipose samples were placed in 4% buffered formaldehyde for 24 hours, followed by 80% ethanol and then embedded in paraffin blocks. Liver and adipose tissues were cut into […], deparaffinized with xylene and hydrated through graded ethanol. For the H&E staining, tissue sections were stained with hematoxylin (Emmonya Biotech Ltd.) and eosin (Leica, Surgipath). Liver macrophages were stained using rat anti-mouse F4/80 antigen (Serotec), followed by anti-Rat HRP (Histofine) and developed with a DAB kit (Zymed). Liver sections were stained for Masson Trichrome (Sigma). Liver CD3+ T cells were stained using Rat anti human-CD3-antibody (Bio-Rad), followed by anti-Rat HRP (Histofine) and developed with AEC (Invitrogen). α-SMA positive cells were stained using mouse anti-Human smooth Muscle Actin antibody (Dako), followed by anti-mouse HRP (Dako) and developed with DAB. The percentage area stained positively per high power field was calculated by ImageJ Software in 5-10 random fields.
Experimental design: C57BL/6 mice fed for 3 weeks with atherogenic diet (to induce fibrosis) and injected with 15 mg/kg Compound 1 (or saline+DMSO) 3 times a week for 3.5 week (n=8).
Experimental design: C57BL/6 mice fed for 3 weeks with atherogenic diet (to induce fibrosis) and injected with 15 mg/kg Compound 1 (or saline+DMSO) 3 times a week for 3.5 week (n=8). Representative microphotographs of H&E, CD3, and F4/80-stained livers taken from saline or Compound 1-treated mice are shown in FIG. 12A, where scale bars represent 10 μm. The graphs shown in FIG. 12B show quantification of positively-stained F4/80 areas using ImageJ.

[2] = system: C57BL/6 mice fed with high fat diet (HFD); experiment: HFD-fed C57BL/6 mouse model of NASH, Compound 1 15 mg/kg; type: in vivo
Method: To determine the liver and muscle lipid content, muscle and liver tissues (40-80 mg) were homogenized in 0.5 ml of chloroform: Tris solution (v/v, 1:1), the homogenate was transferred to 1 ml of chloroform:methanol solution (v/v, 2:1) centrifuged at 3000 g (at −2° C.) for 10 min (Heraeus Megafuge 16R centrifuge). The organic phase was mixed with 5% Triton X100 in chloroform, dried and re-dissolved in water. After lipid extraction, triglyceride (TG) concentration in samples was measured with Triglyceride Quantification Kit (BioVision), according to the manufactures instructions. Plasma Free fatty acids and β-hydroxybutyrate were determined utilizing commercial colorimetric kits (BioVision) directly from plasma samples.
as §1
Experimental design: C57BL/6 mice fed for 6 weeks with high fat diet (HFD) were injected with 15 mg/kg Compound 1 (or saline+DMSO) 3 times a week for 3 weeks (n=6).
Experimental design: C57BL/6 mice fed for 6 weeks with HFD were injected with 15 mg/kg Compound 1 (or saline+DMSO) 3 times a week for 3 weeks (n=6).

[3] = 15 mg/kg 3 times a week for 3.5 weeks
[4] = liver, 15 mg/kg 3 times a week for 3.5 weeks
[5] = liver, 15 mg/kg 3 times a week for 3.5 weeks, vs untreated
[6] = 15 mg/kg 3 times a week for 3 weeks

`O=C1Nc2cc(C(=O)N3CCC(Cc4ccccc4)CC3)ccc2Nc2ccccc21` [Compound 1] was tested, and the “biomarkers of inflammation (Tgfb2 and TgfbR2) and fibrosis (Acta1, Col1A1 and Col3A1), liver mRNA” value [1, 3] was “reducing”, the “biomarkers of liver injury, AST and ALT (plasma)” value [1, 3] was “significantly improved” and the “mature miR-122 in tissue and in plasma” value [1, 3] was “increased”. The “liver vasculature (CD34 staining)” value ([1]; data not shown) was “no effect”, the “T-cell density by CD3 staining” value [1, 4] was “decreased” and the “immune infiltrate by H&E staining” value [1, 4] was “decreased”. For the same molecule, the “levels of myeloid infiltrate by F4/80 staining” value [1, 4] was “decreased”, the “reduction of fibrotic areas, Masson Trichrome (M.T)” value [1, 5] was 5 fold and the “reduction of fibrotic areas, α-SMA” value [1, 5] was 7 fold. The “body weight at end of experiment” value [2, 6] was “significantly reduced”, the “decrease of (liver) triglyceride levels compared to untreated HFD mice” value [2, 6] was 5 fold and the “expression and secretion of miR-122 and precursors in plasma and liver” value [2, 6] was “induced”. The hepatic lipid droplets [2, 6] was “reduced”, the “liver/body weight ratio, treated vs untreated group” value [2, 6] was “decrease” and the “expression of RORα-regulated genes FGF21 and Gpase6” value ([2]; 15 mg/kg 3 times a week for 3 weeks, liver) was “significantly induced”. For the same molecule, the WAT inflammation ([2]; mice with established NASH on HFD) was “reducing”.
